According to PMC6791383, “A side-by-side evaluation of [^18F]FDOPA enantiomers for non-invasive detection of neuroendocrine tumors by positron emission tomography” (Oncotarget, 2019):
“And” between values parts separate entries of the source, which are not always exact repeats. Identical values can stand only once.

Assays:
[1] = test system: PC12 xenografts; assay: In vivo PET-CT quantitative image analysis, PC12 xenografts; conditions: PC12 tumors, NSG mice, 9MBq
Procedure: (§1) All animal studies were carried out according to regulations set forth and approved by the Johns Hopkins Animal Care and Use Committee. Female, 6- to 8-weeks-old immunodeficient NOD scid gamma (NSG) mice were subcutaneously inoculated with 1 million PC12, STC-1 or COLO-320 cells in […] of Hank’s balanced salt solution in the top flank. Tumors of 4–6 mm in diameter (typically 14-21 days post inoculation) were utilized for in vivo imaging or ex vivo biodistribution studies.
(§2) Mice (n=4) were injected with 9MBq (250μCi) of each tracer in 150μL of saline intravenously and anesthetized with 3% isoflurane prior to being placed on the scanner bed. Mice were kept warm with an external light source and maintained at 1% isoflurane levels while being scanned. PET imaging (2 beds; 10 min per bed) was carried out using an ARGUS small-animal PET/CT scanner (Sedecal). A CT scan (512 projections) was obtained at the end of each PET scan for anatomical co-registration. For in vivo blocking experiments, mice were injected with 10meq of LAT1 inhibitor. PET data were reconstructed using the 2-dimensional ordered subsets-expectation maximization algorithm (2D-OSEM) and corrected for dead time and radioactive decay. Data visualization and image generation were carried out using Amira 2019.1 (ThermoFisher Scientific).
(§3) Quantitative in vivo image analysis was carried out in AMIDE (SourceForge) 1.0.4 utilizing ellipsoid region-of-interest volume integrations with 3 slices entailing a depth of 1.9 mm per slice. The %ID per cc values were calculated based on a calibration factor obtained from a phantom (known radioactive quantity in a known volume).

[2] = test system: STC-1 xenografts; assay: Ex vivo biodistribution in NSG mice bearing STC-1 xenografts; conditions: STC-1 xenograft NSG mice, 1.5MBq i.v.
Procedure: as §1
(§4) Mice (n=5 per group) were intravenously injected with 1.5MBq (40μCi) of each tracer in 150μL of saline. Ex vivo biodistribution studies were performed at 30min and 120min time points after tracer administration. Blood, liver, spleen, heart, lungs, kidneys, small intestines, stomach, muscle, fat, bone, bladder, brain and tumor tissues were retrieved, weighed, and counted in an automated gamma counter (1282 Compugamma CS). Percentage injected dose per gram (%ID/g) values were calculated based on normalization to external standards, counted in triplicate, and accounted for signal-decay correction.

[3] = test system: STC-1 xenografts; assay: In vivo PET-CT quantitative image analysis, STC-1 xenografts; conditions: STC-1 tumors, NSG mice, 9MBq
Procedure: as §1, §2, §3

[4] = test system: LAT1; assay: In vivo PET-CT blocking by BCH in NET mouse models; parameters: species or system mice; conditions: all NET mouse models (PC12, STC-1, COLO-320), 10meq LAT1 inhibitor
Procedure: as §2, §3

[5] = test system: NET xenografts (STC-1, PC12, COLO-320); assay: Ex vivo biodistribution, across all NET mouse models; format: in vivo, mice; conditions: for brain accumulation, average in all NET mice: average over STC-1, COLO-320 and PC12 mice
Procedure: as §1, §4

[6] = test system: COLO-320 xenografts; assay: Ex vivo biodistribution in NSG mice bearing COLO-320 xenografts; conditions: for small intestines retention, fold higher than tumor uptake: COLO-320 mice
Procedure: as §1, §4

[7] = test system: PC12 xenografts; assay: Ex vivo biodistribution in NSG mice bearing PC12 xenografts; conditions: PC12 xenograft NSG mice, 1.5MBq i.v.
Procedure: as §1, §4

[8] = test system: COLO-320 xenografts; assay: In vivo PET-CT quantitative image analysis, COLO-320 xenografts; conditions: COLO-320 tumors, NSG mice, 9MBq
Procedure: as §1, §2, §3

[9] = test system: STC-1 cells; assay: In vitro uptake (binding) assay in STC-1 cells; format: cell-based; conditions: 30mins incubation, 1 million cells, % incubated dose/million cells
Procedure: (§5) Both [^18F]FDOPA enantiomers were initially assessed in vitro in all NET cells.
(§6) In vitro binding assays were carried out, in triplicate, in PBS with 0.5% FBS, for 30mins at ambient temperatures using 1 million cells and repeated three times. Blocking studies were carried out using 10meq of the commercial LAT1 inhibitor, 2-Aminobicyclo[2.2.1]heptane-2-carboxylic acid (TOCRIS, MN, USA). Following incubation with each tracer, cells were rinsed three times with cold PBS prior to being counted on an automated gamma counter (1282 Compugamma CS; Pharmacia/LKBNuclear, Inc.) along with external standards. Obtained counts were converted into percentage incubated dose per million cells based on normalization to external standards. Experiments were performed in triplicate and repeated three times.

[10] = test system: PC12 cells; assay: In vitro uptake (binding) assay in PC12 cells; format: cell-based; conditions: 30mins incubation, 1 million cells
Procedure: as §5, §6

[11] = COLO-320 xenograft NSG mice, 30min p.i., 1.5MBq i.v.
[12] = COLO-320 xenograft NSG mice, 120min p.i., 1.5MBq i.v.

## N[C@@H](Cc1cc(O)c(O)cc1[18F])C(=O)O [L-[^18F]FDOPA, 3,4-dihydroxy-6-[^18F]fluoro-L-phenylalanine]
[1]; 30min post i.v. injection
  tumor uptake, quantitative PET image analysis: 35.73±2.50 %ID/cc
[1]; 120min post i.v. injection
  tumor uptake, quantitative PET image analysis: 18.82±1.55 %ID/cc
[2]; 30min p.i.
  Biodistribution, Bladder: 5.15 %ID/g
  Biodistribution, Blood: 3.94 %ID/g
  Biodistribution, Bone: 3.09 %ID/g
  Biodistribution, Brain: 2.16 %ID/g
  Biodistribution, Fat: 1.34 %ID/g
  Biodistribution, Heart: 2.72 %ID/g
  Biodistribution, Kidneys: 8.90 %ID/g
  Biodistribution, Liver: 4.87 %ID/g
  Biodistribution, Lungs: 4.13 %ID/g
  Biodistribution, Muscle: 3.63 %ID/g
  Biodistribution, Pancreas: 44.22 %ID/g
  Biodistribution, Small Intestines: 16.04±2.47 %ID/g and 16.43 %ID/g
  Biodistribution, Spleen: 3.98 %ID/g
  Biodistribution, Stomach: 8.97 %ID/g
  Biodistribution, Tumor: 11.06 %ID/g
[2]; 120min p.i.
  Biodistribution, Bladder: 8.80 %ID/g
  Biodistribution, Blood: 1.47 %ID/g
  Biodistribution, Bone: 5.40 %ID/g
  Biodistribution, Brain: 1.07 %ID/g
  Biodistribution, Fat: 0.78 %ID/g
  Biodistribution, Heart: 2.34 %ID/g
  Biodistribution, Kidneys: 4.00 %ID/g
  Biodistribution, Liver: 1.73 %ID/g
  Biodistribution, Lungs: 1.89 %ID/g
  Biodistribution, Muscle: 2.75 %ID/g
  Biodistribution, Pancreas: 20±0.89 %ID/g and 20.71 %ID/g
  Biodistribution, Small Intestines: 5.08 %ID/g
  Biodistribution, Spleen: 6.55 %ID/g
  Biodistribution, Stomach: 6.83 %ID/g
  Biodistribution, Tumor: 6.98 %ID/g
[3]; 30min post i.v. injection
  tumor uptake, quantitative PET image analysis: 33.29±1.66 %ID/cc
[3]; 120min post i.v. injection
  tumor uptake, quantitative PET image analysis: 10.38±1.31 %ID/cc
[4]
  tumor uptake after in vivo blocking by BCH: significantly reduced
[5]; 30min p.i.
  brain accumulation, average in all NET mice: 2.21±0.17 %ID/g
[5]; 120min p.i.
  brain accumulation, average in all NET mice: 1.22±0.16 %ID/g
[5]; STC-1 vs COLO-320 tumors
  tumor uptake, fold higher in STC-1 than in COLO-320 tumors: > 2 fold
[6]; 30min
  small intestines retention, fold higher than tumor uptake: 5 fold
[6]; 120min
  small intestines retention, fold higher than tumor uptake: 3 fold
[6]; [11]
  Biodistribution, Bladder: 8.38 %ID/g
  Biodistribution, Blood: 5.53 %ID/g
  Biodistribution, Bone: 5.05 %ID/g
  Biodistribution, Brain: 2.58 %ID/g
  Biodistribution, Fat: 0.95 %ID/g
  Biodistribution, Heart: 3.85 %ID/g
  Biodistribution, Kidneys: 13.60 %ID/g
  Biodistribution, Liver: 10.68 %ID/g
  Biodistribution, Lungs: 6.11 %ID/g
  Biodistribution, Muscle: 5.27 %ID/g
  Biodistribution, Pancreas: 57.82 %ID/g
  Biodistribution, Small Intestines: 15.72 %ID/g
  Biodistribution, Spleen: 5.72 %ID/g
  Biodistribution, Stomach: 11.27 %ID/g
  Biodistribution, Tumor: 5.15 %ID/g
[6]; [12]
  Biodistribution, Bladder: 14.73 %ID/g
  Biodistribution, Blood: 2.44 %ID/g
  Biodistribution, Bone: 7.40 %ID/g
  Biodistribution, Brain: 1.28 %ID/g
  Biodistribution, Fat: 1.76 %ID/g
  Biodistribution, Heart: 2.74 %ID/g
  Biodistribution, Kidneys: 4.16 %ID/g
  Biodistribution, Liver: 2.85 %ID/g
  Biodistribution, Lungs: 2.55 %ID/g
  Biodistribution, Muscle: 4.40 %ID/g
  Biodistribution, Pancreas: 37±5.43 %ID/g and 37.13 %ID/g
  Biodistribution, Small Intestines: 8.66 %ID/g
  Biodistribution, Spleen: 6.72 %ID/g
  Biodistribution, Stomach: 7.99 %ID/g
[7]; 30min p.i.
  Biodistribution, Bladder: 7.24 %ID/g
  Biodistribution, Blood: 4.14 %ID/g
  Biodistribution, Bone: 3.86 %ID/g
  Biodistribution, Brain: 1.90 %ID/g
  Biodistribution, Fat: 1.25 %ID/g
  Biodistribution, Heart: 2.96 %ID/g
  Biodistribution, Kidneys: 14.60 %ID/g
  Biodistribution, Liver: 8.59 %ID/g
  Biodistribution, Lungs: 4.57 %ID/g
  Biodistribution, Muscle: 4.70 %ID/g
  Biodistribution, Pancreas: 50.08 %ID/g
  Biodistribution, Small Intestines: 11.50 %ID/g
  Biodistribution, Spleen: 4.30 %ID/g
  Biodistribution, Stomach: 9.04 %ID/g
[7]; 120min p.i.
  Biodistribution, Bladder: 14.06 %ID/g
  Biodistribution, Blood: 2.19 %ID/g
  Biodistribution, Bone: 7.19 %ID/g
  Biodistribution, Brain: 1.31 %ID/g
  Biodistribution, Fat: 1.78 %ID/g
  Biodistribution, Heart: 2.45 %ID/g
  Biodistribution, Kidneys: 4.84 %ID/g
  Biodistribution, Liver: 3.01 %ID/g
  Biodistribution, Lungs: 2.43 %ID/g
  Biodistribution, Muscle: 3.48 %ID/g
  Biodistribution, Pancreas: 36.66 %ID/g
  Biodistribution, Small Intestines: 10.02 %ID/g
  Biodistribution, Spleen: 6.11 %ID/g
  Biodistribution, Stomach: 8.28 %ID/g
[8]; 30min post i.v. injection
  tumor uptake, quantitative PET image analysis: 11.99±0.50 %ID/cc
[8]; 120min post i.v. injection
  tumor uptake, quantitative PET image analysis: 15.10±1.30 %ID/cc
[9]
  in vitro uptake: 2.97±0.07%
[10]
  in vitro uptake: 19.73±0.71 % (incubated dose/million cells)
